{
  "source": "patent US9877916B2",
  "about": "“Methods and compositions for treating aged skin” (ELC Management LLC, priority 2016, dated 2018)",
  "tested_on": "normal human dermal fibroblasts (NHDF) from a donor",
  "test": "collagen induction assay (Pro-collagen Type I EIA) in aged fibroblasts",
  "assay_type": "cell-based",
  "conditions": "72 hr, 18 ug/ml, positive control",
  "description": "Moringa oleifera seed extract was tested at various concentrations for its ability to stimulate collagen production in normal human dermal fibroblasts (“NHDF”) from a donor in a collagen induction assay. Moringa oleifera extract diluted in dimethylsulfoxide (“DMSO”) (% concentrations 0.003125, 0.00625 and 0.0125), Moringa oleifera […] diluted in Dulbecco's Modified Eagle Medium supplemented with 10% Hyclone® bovine calf serum and 1% Cellgro® penicillin-streptomycin solution (“DMEM”) (% concentrations of 0.0000625, 0.000125, 0.00025, 0.0005), positive control (L-ascorbic acid, 18 ug/ml), and DMEM alone were tested. Cell Growth and Maintenance. Aged NHDF were obtained from ZenBio. Fibroblasts were cultured in DMEM 1× (Life Tech) supplemented with 10% bovine calf serum (Hyclone) and 1% PenStrep solution (Cellgro). Cells were regularly maintained; subcultured as needed. Normal human dermal fibroblasts (NHDF, aged) were plated on a 96-well plate in supplemented DMEM (as indicated above). […] Alamar Blue results were determined using a plate reader. Data was analyzed using the SoftMax Pro software and Excel. Collagen production was assessed using the Pro-collagen Type I collagen EIA Kit (Takara) as per manufacturer's protocol, exactly as described. Plate was read using the Gemini M2E plate reader and results were compared. […]",
  "data": [
    {"smiles": "O=C1O[C@H]([C@@H](O)CO)C(O)=C1O", "note": "[L-ascorbic acid (+Control), L-ascorbic acid]", "values": [
      {"measurement": "% increase in collagen induction", "value": "+16%"}
    ]}
  ]
}
